For data set [1] the following is noted: cited from earlier work.
Data set [2] deals with LH, FSH and 17β-estradiol in the serum. Briefly: Hormonal profile. Type of data set: in vivo, rat. The following applies: s.c. 1 µg/kg; for highest estradiol concentration, suspension form: 1 h after injection.
A short description of data set [3]: Pharmacokinetics and bioavailability after single s.c. injection. To be noted: for extent of biological availability (EBA), solution relative to suspension: (AUCsolution/AUCsuspension) × 100 %, from AUC0−∞; for presence in the plasma after injection in the form of suspension: 24 h after s.c. 6 mg/kg.

Consider buserelin, for which the “activity / relative potency in relation to natural GnRH” value in data set [1] is 20 times. For the same substance, the “maximal concentration of estradiol, form of solution” value in data set [2] (solution, 30 min after injection) was determined as 45.7 pg/mL. The “time of maximal concentration of estradiol, form of solution” value in data set [2] (solution) is on record as 30 min. In data set [2], the “highest estradiol concentration, suspension form” value was 21.4 pg/mL and the “time of highest concentration of FSH, suspension form” value turned out to be 4 h. In data set [3], the “extent of biological availability (EBA), solution relative to suspension” value came to 13% and the “presence in the plasma after injection in the form of suspension” value is “detectable in the plasma even after 24 h”.

Regarding dalarelin, in data set [1], the “activity / relative potency in relation to natural GnRH” value is given as “roughly 14 times”. Further, the “time of maximal concentration of estradiol, form of solution” value in data set [2] (solution) is given as 30 min. Besides, in data set [2], the “highest estradiol concentration, suspension form” value was found to be 24.2 pg/mL and the “time of highest concentration of FSH, suspension form” value was 2 h. Moreover, the “EBA of dalarelin relative to buserelin, form of solution” value in data set [3] ((AUCdalarelin solution/AUCbuserelin solution) × 100 %) is 53%. In addition, the “EBA of dalarelin relative to buserelin, form of suspension” value in data set [3] ((AUCdalarelin suspension/AUCbuserelin suspension) × 100 %) worked out at 83%. In data set [3], the “extent of biological availability (EBA), solution relative to suspension” value worked out at 8% and the “presence in the plasma after injection in the form of suspension” value was “detectable in the plasma even after 24 h”.
